Test results taken from PubChem BioAssay AID254 (DTP/NCI, 2004).
“And” between values parts separate entries of the source, which are not always exact repeats. Equal entries are not always repeated. Toxic doses and inconclusive results are not listed.

Test system: L1210 leukemia iv in BDF1 mice, survival T/C
Test: NCI In Vivo Anticancer Drug Screen. Data for tumor model L1210 Leukemia (intravenous) in B6D2F1 (BDF1) mice
Details: endpoint: mean survival time, higher = longer survival
Protocol: The antitumor activity of compounds was measured in mice bearing transplantable tumors. Survival or tumor size were measured and the results are expressed as the measurement made in the treated group (T) divided by the measurement made in the vehicle treated control group (C). The tumor model used in this assay is L1210 Leukemia (intravenous) in B6D2F1 (BDF1) mice

With CN(Cc1cnc2nc(N)nc(N)c2n1)c1ccc(C(=O)N[C@@H](CCC(=O)O)C(=O)O)cc1 the T/C (dose: 0.3 mg/kg/injection, schedule: Q01DX008 (ip), vehicle: other) was 110 % of control, the T/C (dose: 0.3 mg/kg/injection, schedule: Q01HX008 (ip), vehicle: other) was 121 % of control and the T/C (dose: 0.3 mg/kg/injection, schedule: Q03HX008 (ip), vehicle: other) was 118 % of control. For the same molecule, the T/C (dose: 0.3 mg/kg/injection, schedule: Q06HX008 (ip), vehicle: other) was 116 % of control, the T/C (dose: 0.3 mg/kg/injection, schedule: Q12HX008 (ip), vehicle: other) was 115 % of control and the T/C (dose: 0.4 mg/kg/injection, schedule: Q01DX008 (ip), vehicle: other) was 121 % of control. For the same molecule, the T/C (dose: 0.4 mg/kg/injection, schedule: Q01HX008 (ip), vehicle: other) was 119 % of control, the T/C (dose: 0.4 mg/kg/injection, schedule: Q03HX008 (ip), vehicle: other) was 119 % of control and the T/C (dose: 0.4 mg/kg/injection, schedule: Q06HX008 (ip), vehicle: other) was 122 % of control. For the same molecule, the T/C (dose: 0.4 mg/kg/injection, schedule: Q12HX008 (ip), vehicle: other) was 115 % of control, the T/C (dose: 2.4 mg/kg/injection, schedule: Q01DX001 (ip), vehicle: other) was 122 % of control and the T/C (dose: 3.2 mg/kg/injection, schedule: Q01DX001 (ip), vehicle: other) was 119 % of control.
O=NN(CCCl)C(=O)NC1CCC(NC(=O)N(CCCl)N=O)CC1 (stereo not given) was tested, and the T/C (dose: 23.0 mg/kg/injection, schedule: Q01DX001 (ip), vehicle: other) was 157 % of control and 193 % of control, the T/C (dose: 38.0 mg/kg/injection, schedule: Q01DX001 (oral), vehicle: other) was 124 % of control and the T/C (dose: 44.0 mg/kg/injection, schedule: Q01DX001 (ip), vehicle: saline with Tween-80) was 169 % of control. The T/C (dose: 48.0 mg/kg/injection, schedule: Q01DX001 (ip), vehicle: other) was 450 % of control and 218 % of control, the T/C (dose: 67.0 mg/kg/injection, schedule: Q01DX001 (ip), vehicle: saline with Tween-80) was 178 % of control and 169 % of control and the T/C (dose: 84.0 mg/kg/injection, schedule: Q01DX001 (oral), vehicle: other) was 150 % of control and 165 % of control. The T/C (dose: 96.0 mg/kg/injection, schedule: Q01DX001 (ip), vehicle: other) was 375 % of control and 594 % of control, the T/C (dose: 100.0 mg/kg/injection, schedule: Q01DX001 (ip), vehicle: saline with Tween-80) was 246 % of control and 238 % of control and the T/C (dose: 150.0 mg/kg/injection, schedule: Q01DX001 (ip), vehicle: saline with Tween-80) was 255 % of control and 263 % of control. The T/C (dose: 171.0 mg/kg/injection, schedule: Q01DX001 (oral), vehicle: other) was 177 % of control and 214 % of control, the T/C (dose: 191.0 mg/kg/injection, schedule: Q01DX001 (ip), vehicle: other) was 475 % of control and 531 % of control and the T/C (dose: 225.0 mg/kg/injection, schedule: Q01DX001 (ip), vehicle: saline with Tween-80) was 438 % of control and 328 % of control. The T/C (dose: 319.0 mg/kg/injection, schedule: Q01DX001 (oral), vehicle: other) was 453 % of control and 274 % of control, the T/C (dose: 337.0 mg/kg/injection, schedule: Q01DX001 (ip), vehicle: saline with Tween-80) was 507 % of control and the T/C (dose: 383.0 mg/kg/injection, schedule: Q01DX001 (ip), vehicle: other) was 340 % of control and 381 % of control. The T/C (dose: 638.0 mg/kg/injection, schedule: Q01DX001 (oral), vehicle: other) was 478 % of control and 554 % of control.
With O=NN(CCF)C(=O)NCCCl the T/C (dose: 9.0 mg/kg/injection, schedule: Q01DX001 (ip), vehicle: Klucel (hydroxypropylcellulose) (HPC)) was 197 % of control and 294 % of control, the T/C (dose: 14.0 mg/kg/injection, schedule: Q01DX001 (ip), vehicle: Klucel (hydroxypropylcellulose) (HPC)) was 226 % of control and 270 % of control and the T/C (dose: 21.0 mg/kg/injection, schedule: Q01DX001 (ip), vehicle: Klucel (hydroxypropylcellulose) (HPC)) was 342 % of control and 307 % of control. The T/C (dose: 32.0 mg/kg/injection, schedule: Q01DX001 (ip), vehicle: Klucel (hydroxypropylcellulose) (HPC)) was 603 % of control and 323 % of control.
For O=NN(CCCl)C(=O)NC1CS(=O)(=O)CS(=O)(=O)C1, the T/C (dose: 8.0 mg/kg/injection, schedule: Q04DX004 (ip), vehicle: saline with Tween-80) was 177 % of control, the T/C (dose: 12.0 mg/kg/injection, schedule: Q04DX004 (ip), vehicle: saline with Tween-80) was 529 % of control and the T/C (dose: 18.0 mg/kg/injection, schedule: Q04DX004 (ip), vehicle: saline with Tween-80) was 687 % of control.
